Reference: US20180003723A1, “METHODS AND SYSTEMS FOR […] DISORDERS” (OASIS DIAGNOSTICS CORPORATION, priority 2014, published 2018)

Columns and labels:
[1] = tested on: patients with idiopathic central sleep apnea; assay: Salivary biomarker levels before and after zolpidem treatment (commercial kits, NMR); format: in vivo, human; settings: unstimulated saliva, morning, after 150 days of study, mean
Protocol: Idiopathic central sleep apnea was defined by central apnea and hypopnea index (CAHI)≧10 events per hour of sleep, and obstructive apnea/hypopnea index ≦5 events per hour of sleep. An apnea was defined as a cessation or reduction in peak oronasal airflow≧70% of baseline, lasting ≧15 s. Hypopnea was defined as a reduction in peak oronasal airflow ≧50%, ≧70% of baseline for ≧15 s, along with a ≧4% drop in SpO2 relative to pre-event baseline value. The apnea/hypopnea index was calculated for all events relative to total sleep time and documented separately for central and obstructive events. Central apneas and hypopneas comprised the central and obstructive apneas and hypopneas plus mixed apneas and hypopneas comprised the obstructive apnea-hypopnea index (OAHI). Exclusion criteria comprise such as clinical or echocardiographic diagnosis of systolic heart failure, diastolic cardiac dysfunction, or a history of transient ischemic attack or stroke. Those with a typical pattern of Cheyne Stokes respiration during sleep were also excluded. Patients with obstructive sleep apnea with an Apnea-Hypopnea Index of (AHI) ≧5 events per hour prior to continuous positive airway pressure device (CPAP) use, or a history of restless legs syndrome/periodic leg movements were also excluded. Patients with prior use of sedative agents such as zolpidem, acetazolamide, theophylline, medroxyprogesterone, or any opiate, were also excluded from the study to exclude comparative bias when evaluating subjective response to zolpidem. Patients with hypercapnic lung disease or those with obesity hypoventilation syndrome were also excluded. Subjects were given the Epworth Sleepiness Scale (ESS), and a physical exam followed by an 8-h diagnostic polysomnogram (PSG). […] Outpatient monitoring was conducted every four weeks to assess patients for side effects and for evaluation of daytime sleepiness, using the ESS. […] Nocturnal polysomnographic assessment using the Grass Aurora system was performed in a standard way consisting of an electroencephalogram (EEG), an electrooculogram (EOG), a submental electromyogram (EMG), an anterior tibialis EMG, and an electrocardiogram (ECG) (Rechtschaffen A, Kales A. A manual of standardized terminology, techniques and scoring system for sleep stages in human subjects. Washington D.C.: US Government Printing Office. National Institute of Health Publication; 1968). Nasal-oral airflow was measured using thermocouples. Abdominal and thoracic respiratory movements were recorded with respiratory effort belts using piezoelectric crystal sensors. Transcutaneous oxyhemoglobin saturation (SpO2) was monitored with finger pulse oximetry. A recording of sleep position was performed using video monitoring and snoring was recorded using a snore sensor. An experienced sleep physician, blinded to the study protocol, scored sleep recordings. Sleep architecture was analyzed according to standardized way (Rechtschaffen A, Kales A. A manual of standardized terminology, techniques and scoring system for sleep stages in human subjects. Washington D.C.: US Government Printing Office. National Institute of Health Publication; 1968). Unstimulated saliva samples were collected and biomarker levels measured in the morning prior to beginning and after 150 days of study. Ten minutes prior to collection of unstimulated saliva samples, individuals were asked to rinse orally with water. At the time of sample collection, study members were asked to relax for 5-15 minutes. They were then seated in a bent forward position in an ordinary chair and asked to put their tongues on the lingual surfaces of the upper incisors and allow the saliva to drip into sterile plastic (glass) tubes treated with […] of 2% sodium azide solution to prevent microbial decomposition of saliva. The tubes were held to the lower lip for 10 minutes resulting in a collection of 1-5 ml of saliva per individual. […]

[2] = tested on: patients diagnosed with idiopathic central sleep apnea; assay: Hospital based clinical trial of zolpidem: follow-up polysomnogram and Epworth Sleepiness Scale; format: in vivo, human
Protocol: Idiopathic central sleep apnea was defined by central apnea and hypopnea index (CAHI)≧10 events per hour of sleep, and obstructive apnea/hypopnea index ≦5 events per hour of sleep. An apnea was defined as a cessation or reduction in peak oronasal airflow≧70% of baseline, lasting ≧15 s. Hypopnea was defined as a reduction in peak oronasal airflow ≧50%, ≧70% of baseline for ≧15 s, along with a ≧4% drop in SpO2 relative to pre-event baseline value. The apnea/hypopnea index was calculated for all events relative to total sleep time and documented separately for central and obstructive events. Central apneas and hypopneas comprised the central and obstructive apneas and hypopneas plus mixed apneas and hypopneas comprised the obstructive apnea-hypopnea index (OAHI). Exclusion criteria comprise such as clinical or echocardiographic diagnosis of systolic heart failure, diastolic cardiac dysfunction, or a history of transient ischemic attack or stroke. Those with a typical pattern of Cheyne Stokes respiration during sleep were also excluded. Patients with obstructive sleep apnea with an Apnea-Hypopnea Index of (AHI) ≧5 events per hour prior to continuous positive airway pressure device (CPAP) use, or a history of restless legs syndrome/periodic leg movements were also excluded. […] Patients with hypercapnic lung disease or those with obesity hypoventilation syndrome were also excluded. Subjects were given the Epworth Sleepiness Scale (ESS), and a physical exam followed by an 8-h diagnostic polysomnogram (PSG). […] Outpatient monitoring was conducted every four weeks to assess patients for side effects and for evaluation of daytime sleepiness, using the ESS. […] Nocturnal polysomnographic assessment using the Grass Aurora system was performed in a standard way consisting of an electroencephalogram (EEG), an electrooculogram (EOG), a submental electromyogram (EMG), an anterior tibialis EMG, and an electrocardiogram (ECG) (Rechtschaffen A, Kales A. A manual of standardized terminology, techniques and scoring system for sleep stages in human subjects. Washington D.C.: US Government Printing Office. National Institute of Health Publication; 1968). Nasal-oral airflow was measured using thermocouples. Abdominal and thoracic respiratory movements were recorded with respiratory effort belts using piezoelectric crystal sensors. Transcutaneous oxyhemoglobin saturation (SpO2) was monitored with finger pulse oximetry. A recording of sleep position was performed using video monitoring and snoring was recorded using a snore sensor. An experienced sleep physician, blinded to the study protocol, scored sleep recordings. Sleep architecture was analyzed according to standardized way (Rechtschaffen A, Kales A. A manual of standardized terminology, techniques and scoring system for sleep stages in human subjects. Washington D.C.: US Government Printing Office. National Institute of Health Publication; 1968). Unstimulated saliva samples were collected and biomarker levels measured in the morning prior to beginning and after 150 days of study. Ten minutes prior to collection of unstimulated saliva samples, individuals were asked to rinse orally with water. At the time of sample collection, study members were asked to relax for 5-15 minutes. They were then seated in a bent forward position in an ordinary chair and asked to put their tongues on the lingual surfaces of the upper incisors and allow the saliva to drip into sterile plastic (glass) tubes treated with […] of 2% sodium azide solution to prevent microbial decomposition of saliva. The tubes were held to the lower lip for 10 minutes resulting in a collection of 1-5 ml of saliva per individual.

[3] = follow-up polysomnogram vs before treatment

**Q.** For Cc1ccc(-c2nc3ccc(C)cn3c2CC(=O)N(C)C)cc1 [zolpidem], which “Salivary Arginine, After Treatment” value ([1]; Before Treatment 0.56, P 0.001) is on record?
**A.** 0.45 µmol/mL

**Q.** What about the “Salivary Creatine, After Treatment” value ([1]; Before Treatment 0.64, P 0.001) of the same compound?
**A.** 0.47 µmol/mL

**Q.** And the “Salivary Tyrosine, After Treatment” value ([1]; Before Treatment 0.67, P 0.005)?
**A.** 0.54 µmol/mL

**Q.** And the “Salivary CgA, After Treatment” value ([1]; Before Treatment 13.68, P 0.0001)?
**A.** 4.23 pmol/mg protein

**Q.** And the “Salivary Dihomo-linolenate, After Treatment” value ([1]; Before Treatment 34.4, P 0.0001)?
**A.** 27.1 µmol/mL

**Q.** And the “Salivary Linolenate, After Treatment” value ([1]; Before Treatment 36.5, P 0.0001)?
**A.** 21.2 µmol/mL

**Q.** And the “Salivary 3-methyl-2-oxobutyrate, After Treatment” value ([1]; Before Treatment 61.2, P 0.005)?
**A.** 54.1 µmol/mL

**Q.** What about the “Salivary Annexin 1, After Treatment” value ([1]; Before Treatment 72.1, P 0.0001) of the same compound?
**A.** 56.3 ng/mL

**Q.** And the “Salivary BDNF, After Treatment” value ([1]; Before Treatment 345.8, P 0.0001)?
**A.** 234.5 pg/mL

**Q.** What about the “Salivary B-endorphin, After Treatment” value ([1]; Before Treatment 2134.9, P 0.0001) of the same compound?
**A.** 1235.3 pg/mL

**Q.** And the “Excessive daytime sleepiness, measured by the Epworth Sleepiness Scale (ESS), change” value ([2]; after vs before treatment)?
**A.** decreased

**Q.** What about the “central AHI (CAHI), change on follow-up polysomnogram” value [2, 3] of the same compound?
**A.** significantly decreased

**Q.** What about the “sleep latency, change” value [2, 3] of the same compound?
**A.** decreased

**Q.** What about the “stage 1, 3, and 4 sleep percentages, change” value [2, 3] of the same compound?
**A.** decreased

**Q.** And the “stage 2 percentages, change” value [2, 3]?
**A.** increased

**Q.** What about the “total number of arousals per hour, change with treatment use” value [2, 3] of the same compound?
**A.** decreased

**Q.** And the “Apnea hypopnea, After” value ([2]; mean, 10 patients, zolpidem 10 mg orally each night, repeat PSG six to ten weeks after initiation, Before 32.6, P 0.0001)?
**A.** 12.6

**Q.** What about the “Epworth sleepiness score, After” value ([2]; mean, zolpidem 10 mg orally each night, Before 13.7, P 0.0001) of the same compound?
**A.** 6.5

**Q.** And the “% TST stage 3 and 4, After” value ([2]; mean, zolpidem 10 mg orally each night, repeat PSG six to ten weeks, Before 1.3, P 0.05)?
**A.** 0.8%

**Q.** What about the “Total sleep time, After” value ([2]; mean, zolpidem 10 mg orally each night, repeat PSG six to ten weeks, Before 4.6, P 0.005) of the same compound?
**A.** 6.3 h

**Q.** And the “% TST REM, After” value ([2]; mean, zolpidem 10 mg orally each night, repeat PSG six to ten weeks, Before 10.4, P 0.05)?
**A.** 14.5%

**Q.** What about the “% TST stage 1, After” value ([2]; mean, zolpidem 10 mg orally each night, repeat PSG six to ten weeks, Before 34.6, P 0.05) of the same compound?
**A.** 21.3%
